Source: patent US8673880B2, “Prevention and/or treatment of neurodegenerative disorders” (The University Of Liverpool, priority 2006, dated 2014)

How the values were obtained:
Format in all cases: biochemical
[1] = tested on: Factor Xa; test: Anti Factor Xa (anticoagulant) activity, Coatest Heparin test kit; settings: for Anti-coagulant activity: anti-factor Xa, percentage of PIMH (defined as 100%); for Anticoagulant activity (%): Example 2, Table 2, standard heparin = 100
Method: Anti Factor Xa activity was measured against a porcine mucosal heparin (PIMH) standard of known activity (Sigma, UK) using a diagnostic grade Coatest Heparin test kit (Chromogenix, MA, USA), adapted to a 96 well plate format, reading A405 (Polarstar plate reader (BMG LabTechnologies, UK)).

[2] = target: T1, recombinant human BACE-1 (Homo sapiens, UniProt P56817); test: BACE-1 inhibition by in vitro FRET peptide cleavage assay; settings: for IC50 (BACE-1): FRET peptide cleavage; for Therapeutic ratio (BACE/Xa): calculated from IC50 against BACE-1/anticoagulant activity; for EC50 (BACE inhibition): Example 2, Table 2
T1 construct: purchased Sigma
T1 sequence (P56817 46-501): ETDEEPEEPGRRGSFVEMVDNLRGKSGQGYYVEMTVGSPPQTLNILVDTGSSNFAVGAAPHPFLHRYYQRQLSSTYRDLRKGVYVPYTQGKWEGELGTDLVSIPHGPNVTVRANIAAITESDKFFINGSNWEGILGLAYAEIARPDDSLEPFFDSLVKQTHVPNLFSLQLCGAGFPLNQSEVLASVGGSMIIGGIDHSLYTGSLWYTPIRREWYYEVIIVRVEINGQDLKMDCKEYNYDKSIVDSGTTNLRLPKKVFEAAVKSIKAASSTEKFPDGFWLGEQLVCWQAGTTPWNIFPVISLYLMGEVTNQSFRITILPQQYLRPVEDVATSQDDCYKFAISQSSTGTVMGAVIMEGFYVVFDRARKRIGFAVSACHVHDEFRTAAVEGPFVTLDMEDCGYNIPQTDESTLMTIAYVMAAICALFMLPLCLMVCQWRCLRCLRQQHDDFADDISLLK
Method: In vitro cleavage of APP by BACE-1 was measured using a FRET peptide cleavage assay.
The ability of the compounds to inhibit BACE-1 cleavage of APP was assessed using a fluorescent resonance energy transfer (FRET) peptide cleavage assay employing the FRET peptide 5-FAM-Glu-Val-Asn-Leu-Asp-Ala-Phe-Lys(QXL520)-OH, containing the Swedish amino acid variant (Anaspec, Inc., CA, USA). When intact, the amino terminal fluorophore is quenched, but upon enzymatic cleavage the fluorophore is released from quencher and fluoresces (520 nm). Assays were performed in triplicate in 96 well black plates (20 mM sodium acetate, 0.1% Triton-X-100, pH 4.5; 2.5 μM peptide per well and 4.0×10^−3 units/well of recombinant human BACE-1 (Sigma)). The appropriate controls for enzyme activity and background fluorescence were employed and plates were incubated (1 h, 25° C., stopped with 2.5 M sodium acetate) Inhibitors were added in a concentration range from 1000-0.0001 μg/ml. Fluorescence 480ex/520em was measured on a Polarstar plate reader (BMG LabTechnologies, UK) and data were analysed by plotting log10 concentration of inhibitor against percent inhibition and fitting a four parameter sigmoidal curve using BioDataFit 1.02 (Chang Bioscience, USA).

[3] = target: T2, Aβ peptide (Amyloid β Protein Fragment 1-42) (Homo sapiens, UniProt P05067); test: Aβ aggregation assay (Thioflavin T); settings: for increase in the time taken to reach half-maximal peptide aggregation: concentration of 100 μg/ml, compared to parental PMH; for rate of A-β aggregation, % slower: compared to intact heparin
T2 construct: Amyloid β Protein Fragment 1-42; Sigma A9810; purchased Sigma A9810
T2 sequence (P05067 672-713): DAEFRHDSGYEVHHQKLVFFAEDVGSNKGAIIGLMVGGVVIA
Method: The Aβ peptide was prepared by addition of 1 ml of hexafluoro-2-propanol to 1 mg Aβ peptide (Amyloid β Protein Fragment 1-42; Sigma A9810) and disaggregation at room temperature for 1 hour. The resulting material was divided into 50 μl (50 μg) aliquots and dried in Speed Vac for approximately 2 hours, followed by storage at −20° C. The Thioflavin T (Sigma T-3516) solution was prepared as a 5 mM solution in 50 mM Glycine-NaOH pH 8.5, and stored in the dark at 4° C. Thioflavin T assay buffer comprising 20 μl Thioflavin T solution with 50 μl 1M DTT and […] assay Buffer (10 mM HEPES/100 mM NaCl pH 7.4) was kept on ice. 50 μl of 20 mM NaOH was added to 50 μg of Aβ peptide. 2.5 ml of Thioflavin T assay buffer was then added to this Aβ peptide solution, making “Aβ buffer”. The remaining 2.5 ml of Thioflavin T assay buffer was the blank buffer, and both were kept on ice. Six replicates of sample dilutions (1:1 in assay buffer) were pipetted into a 96 well black plate (Greiner 655076; 100 μl/well) and the plate was kept on ice. 100 μl/well of Aβ buffer was added to the samples (in triplicate), and 100 μl/well of the blank buffer added to a further three sample replicates. The 96 well plate was read (450 nm excitation wavelength and 490 nm emission wavelength), taking a reading every 150 seconds for 250 cycles one plate reader set at 37° C.

[4] = target: T3, cathepsin D (Homo sapiens, UniProt P07339); test: Cathepsin D FRET cleavage assay
T3 construct: purchased Sigma, UK
T3 sequence (P07339 65-412, species assumed): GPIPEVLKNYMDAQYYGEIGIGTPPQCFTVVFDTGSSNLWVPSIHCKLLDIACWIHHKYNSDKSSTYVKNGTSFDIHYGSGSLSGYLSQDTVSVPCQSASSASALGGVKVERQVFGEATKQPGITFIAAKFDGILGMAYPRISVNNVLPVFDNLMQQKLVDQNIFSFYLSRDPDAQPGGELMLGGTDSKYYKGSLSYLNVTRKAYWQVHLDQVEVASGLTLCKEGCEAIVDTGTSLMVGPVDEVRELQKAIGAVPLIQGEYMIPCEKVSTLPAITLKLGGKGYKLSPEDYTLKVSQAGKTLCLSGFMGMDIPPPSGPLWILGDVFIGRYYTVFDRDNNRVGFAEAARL
Method: (§1) The ability of compounds to inhibit the structurally related proteases pepsin and cathepsin D (Sigma, UK) was measured by FRET cleavage assay (5 pmol enzyme/well, EnzChek Protease Assay kit (Molecular Probes, UK) according to manufacturer's instructions). Activity against human recombinant renin (Cayman Chemical, MI, USA), was measured by FRET peptide cleavage assay (0.08 pMoles enzyme/well, using the Renin Substrate 1 (Molecular Probes, Invitrogen, UK) according to manufacturer's instructions. IC50 values were calculated as described above.

[5] = target: T4, human recombinant renin (Homo sapiens, UniProt P00797); test: Renin FRET peptide cleavage assay; settings: concentrations up to 1000 μg/ml
T4 construct: purchased Cayman Chemical
T4 sequence (P00797 67-406): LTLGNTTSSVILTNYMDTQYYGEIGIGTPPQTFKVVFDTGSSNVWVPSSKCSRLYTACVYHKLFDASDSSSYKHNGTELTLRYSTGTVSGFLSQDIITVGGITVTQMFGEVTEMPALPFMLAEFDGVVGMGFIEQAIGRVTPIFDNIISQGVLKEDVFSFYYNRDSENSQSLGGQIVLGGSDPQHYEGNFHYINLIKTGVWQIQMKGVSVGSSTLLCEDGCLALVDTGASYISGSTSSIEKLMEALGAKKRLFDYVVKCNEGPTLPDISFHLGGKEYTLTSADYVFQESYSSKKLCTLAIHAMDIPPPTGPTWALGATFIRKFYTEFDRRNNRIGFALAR
Method: as §1

[6] = target: T5, pepsin (Sus scrofa, UniProt P00791); test: Pepsin FRET cleavage assay
T5 construct: purchased Sigma, UK
T5 sequence (P00791 60-385): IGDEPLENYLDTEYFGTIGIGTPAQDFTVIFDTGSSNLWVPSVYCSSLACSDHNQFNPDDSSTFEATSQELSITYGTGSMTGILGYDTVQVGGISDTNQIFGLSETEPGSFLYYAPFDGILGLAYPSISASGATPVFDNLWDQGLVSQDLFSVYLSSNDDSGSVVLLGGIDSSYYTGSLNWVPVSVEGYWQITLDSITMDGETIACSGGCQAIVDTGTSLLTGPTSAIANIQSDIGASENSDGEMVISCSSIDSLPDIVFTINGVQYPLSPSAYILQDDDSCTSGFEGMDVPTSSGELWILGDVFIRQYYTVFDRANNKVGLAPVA
Method: as §1

6-O-desulphated heparin [Compound 5]
Anti-coagulant activity [1]: 0.5%
IC50 (BACE-1) ([2]; Table 1): 0.100 μg/ml
Therapeutic ratio (BACE/Xa) [2]: 61

6-O-desulphated, 2-O-desulphated heparin [Compound 7]
Anti-coagulant activity [1]: 0.03%
IC50 (BACE-1) ([2]; Table 1): 0.786 μg/ml
Therapeutic ratio (BACE/Xa) [2]: 123

6-O-desulphated, 2-O-desulphated, N-acetylated heparin [Compound 8]
Anti-coagulant activity [1]: 0.03%
IC50 (BACE-1) ([2]; Table 1): >100 μg/ml
BACE-1 inhibitory activity in words ([2]; Table 1): almost abolished
Therapeutic ratio (BACE/Xa) [2]: 1

6-O-desulphated, N-acetylated heparin [Compound 6]
Anti-coagulant activity [1]: 0.03%
IC50 (BACE-1) ([2]; Table 1): 0.410 μg/ml
Therapeutic ratio (BACE/Xa) [2]: 237

NCCCS(=O)(=O)O [Compound 10, 3-amino-1-propanesulfonic acid, reference compound]
IC50 (BACE-1) ([2]; Table 1): No
inhibition of BACE-1 ([2]; even at high concentrations (1000 μg/ml)): did not inhibit BACE-1

Ido 2-de-O-sulphated heparin [Compound 3]
Anti-coagulant activity [1]: 0.4%
IC50 (BACE-1) ([2]; Table 1): 0.053 μg/ml
Therapeutic ratio (BACE/Xa) [2]: 147
increase in the time taken to reach half-maximal peptide aggregation [3]: 50%
IC50 against cathepsin D [4]: 0.77 µg/mL
inhibitory effect on renin [5]: None of the compounds exerted an inhibitory effect on renin

Ido 2-de-O-sulphated, N-acetylated heparin [Compound 4]
anti factor Xa activity, fold lower than PIMH ([1]; Example 1): at least 3000 fold
Anticoagulant activity (%) [1]: <0.03%
Anti-coagulant activity [1]: 0.03%
IC50 against pepsin [6]: > 1000 µg/mL
EC50 fold lower than unmodified PMH ([2]; Example 2): approximately 3 fold
EC50 (BACE inhibition) [2]: 0.089 µg/mL
IC50 (BACE-1) ([2]; Table 1): 0.091 μg/ml
Therapeutic ratio (BACE/Xa) [2]: 1092
rate of A-β aggregation, % slower ([3]; FIG. 2): 100%
increase in the time taken to reach half-maximal peptide aggregation [3]: 100%
inhibitory effect on renin [5]: None of the compounds exerted an inhibitory effect on renin

N-acetyl heparin [Compound 2]
Anti-coagulant activity [1]: 0.03%
IC50 against pepsin [6]: 3.27 µg/mL
fold less potent than PIMH against pepsin ([6]; compared with compound 1): 14 fold
IC50 (BACE-1) ([2]; Table 1): 0.031 μg/ml
Therapeutic ratio (BACE/Xa) [2]: 3136
rate of A-β aggregation, % slower ([3]; FIG. 2): 50%
increase in the time taken to reach half-maximal peptide aggregation [3]: 50%
IC50 against cathepsin D [4]: 0.27 µg/mL
inhibitory effect on renin [5]: None of the compounds exerted an inhibitory effect on renin

Per-sulphated heparin [Compound 9]
Anti-coagulant activity [1]: 35.0%
IC50 (BACE-1) ([2]; Table 1): 0.053 μg/ml
Therapeutic ratio (BACE/Xa) [2]: 2

porcine intestinal mucosal heparin [Compound 1, reference compound]
Anticoagulant activity (%) [1]: 100%
Anti-coagulant activity [1]: 100%
IC50 against pepsin [6]: 0.23 µg/mL
EC50 (BACE inhibition) [2]: 0.027 µg/mL
IC50 (BACE-1) ([2]; Table 1): 0.028 μg/ml
Therapeutic ratio (BACE/Xa) [2]: 1
enhancement of Aβ aggregation ([3]; FIG. 2): maximum enhancement
IC50 against cathepsin D [4]: 0.1 µg/mL
inhibitory effect on renin [5]: None of the compounds exerted an inhibitory effect on renin
